Results: patent publication US12612389B2, “Benzofuran-based N-acylhydrazone derivative and pharmaceutical composition comprising same” (KOREA RESEARCH INSTITUTE OF BIOSCIENCE AND BIOTECHNOLOGY, priority 2019, dated 2026)
Read-outs that look alike come from different tables or passages of the source. Blank lines part the entries; values can stand above or below the compound they belong to.

Key:
K562 = assay: Anti-proliferative activity test in cancer cells exhibiting multidrug resistance (MTT), parent line; type: cell-based; conditions: Homo sapiens, 96 h, 4 days
Description: (§1) HeLa cells (American Type Culture Collection: ATCC, USA), a human cervical cancer cell line, were seeded in a 96-well plate at 3×10^3 cells/well, and the cells were then treated with compounds of Examples or Comparative Example according to the present invention and grown for 2 days. Then, MTT (3-(4,5-dimethylthiazol-2-yl)-2,5-diphenyltetrazolium bromide) reagent was added at 10 μL/well. […] The data shown in Table below are mean values of results obtained by repeating the analysis twice. Specifically, K562 and MCF7 (Bio Evaluation Center, Korea Research Institute of Bioscience and Biotechnology, Korea) and multidrug-resistant cell lines of each of these cell lines, i.e., K562/ADR and MCF7/ADR (Bio Evaluation Center, Korea Research Institute of Bioscience and Biotechnology, Korea), were cultured on microtiter plates (1-3×10^3 cells/well). […] The data shown in Table below are mean values of results obtained by repeating the analysis three times.

MCF7 = assay: as above; type: cell-based; conditions: Homo sapiens, 96 h, 4 days
Description: as §1

K562/ADR = assay: Anti-proliferative activity test in cancer cells exhibiting multidrug resistance (MTT); type: cell-based; conditions: for IC50: Homo sapiens, 96 h, K562/ADR (multidrug-resistant), 4 days, MTT; for Resistance Factor: ratio IC50 K562/ADR to IC50 K562
Description: as §1

MCF7/ADR = assay: as above; type: cell-based; conditions: for IC50: Homo sapiens, NCI/ADR-RES, 96 h, MCF7/ADR (multidrug-resistant), 4 days, MTT; for Resistance Factor: ratio IC50 MCF7/ADR to IC50 MCF7
Description: as §1

HeLa cells = assay: Anti-proliferative activity test in HeLa cell line (MTT); type: cell-based; conditions: Homo sapiens, 48 h, grown for 2 days, mean of 2
Description: HeLa cells (American Type Culture Collection: ATCC, USA), a human cervical cancer cell line, were seeded in a 96-well plate at 3×10^3 cells/well, and the cells were then treated with compounds of Examples or Comparative Example according to the present invention and grown for 2 days. Then, MTT (3-(4,5-dimethylthiazol-2-yl)-2,5-diphenyltetrazolium bromide) reagent was added at 10 μL/well. After 2 hours, absorbance was measured at “OD 450” and statistical values were obtained using Prism™6 program. The data shown in Table below are mean values of results obtained by repeating the analysis twice.

HeLa CCL2 tumor = assay: Anticancer effect test in human cervical cancer cell (HeLa CCL2) transplantation model; type: in vivo, BALB/C female nude mouse; conditions: 25 mg/kg intraperitoneally, p<0.001
Description: After thawing the human […] cancer cell line HeLa CCL2 that was stored frozen in liquid nitrogen, cell culture was performed. The cells were cultured for an appropriate period in a CO2 incubator (Forma, USA) at a temperature of 37° C. and a CO2 concentration of 5%.
On the last day of culture, all cancer cells were collected and counted, and the cell concentration was adjusted to 1×10^7 cells/mL using serum free media. The cell culture solution as adjusted above was injected subcutaneously into the axillary region between the shoulder blade and the chest wall in an amount of 0.3 mL (3×10^6 cells/mouse) per BALB/C female nude mouse (5 weeks old, Nara Biotech).
Immediately prior to administration, the compounds were dissolved in a mixture of DMAC (dimethylacetamide) 20%+Tween80 5%+20% HPbCD (2-hydroxypropyl-β-cyclodextrin) 75% at an appropriate concentration and used. The prepared substances were repeatedly administered intraperitoneally in an amount of 0.2 mL (10 mL/kg) per 20 g of a mouse according to the following administration schedule. • carrier, the compound of Example 4, the compound of Example 8, and the compound of Example 15 (25 mg/kg), 0-28 days 4.3. Confirmation of Change in Tumor Size
After cancer cell transplantation, the tumor size of each animal subject was measured a total of 11 times in 3 directions using a vernier caliper from when the mean tumor size reached 57.0 mm^3 until Day 28, and calculated by the formula of length×width×height/2.
In order to test the degree of toxicity upon repeated intraperitoneal administration of the Example compound to HeLa CCL2 cancer cell transplantation nude mice, general symptoms and body weight changes of the animal subjects were observed during the administration period.
On Day 28 after drug administration, blood was collected from the mouse ophthalmic veins in 2 hours post the last administration, and the mice were killed using CO2 gas. Images of the mice were taken, and the tumor was separated and weighed on an electronic scale. After taking the images, each tumor was divided in half and fixed in liquid nitrogen and formalin, respectively. On […] after drug administration, the HeLa CCL2 tumor was excised and weighed.

Stability test in plasma [1] = type: in vitro ADME; set-up: Residue % (180 minutes elapsed), Mean: dose or concentration left out as unconfirmed; conditions: 37° C.
Description: In order to test the stability (in vivo) of the Example compounds according to the present invention, the compounds of Examples 2, 3, 4, 8 and 15 were administered intravenously, and plasma concentrations over time were observed. In addition, procaine was used as a positive control. Plasma stability was measured three times by administering the test compound at a concentration […] to human, rat, or mouse plasma (90 μL) at 37° C. Results thereof are shown in Table below and FIGS. 3A to 3E.

Stability test in plasma [2] = type: in vitro ADME; conditions: Rat plasma, 37° C.
Description: In order to test the stability (in vivo) of the Example compounds according to the present invention, the compounds of Examples 2, 3, 4, 8 and 15 were administered intravenously, and plasma concentrations over time were observed. In addition, procaine was used as a positive control. Plasma stability was measured three times by administering the test compound at a concentration of 5 mM to human, rat, or mouse plasma (90 μL) at 37° C. Results thereof are shown in Table below and FIGS. 3A to 3E.

[3] = Metabolic stability test in liver microsomes; type: in vitro ADME; conditions: 0.5 mg protein/mL, 37° C.
Description: (§2) The test compounds at a concentration of […] were administered in the presence or absence of NADPH (1 mM) to liver […] (0.5 mg protein/mL) of humans, rats and mice, and metabolic stability was tested at 37° C. for 30 minutes. In addition, buspirone was used as a positive control. Results thereof are shown in Table below and FIGS. 4A to 4E.

[4] = Stability in buffer (line of the metabolic stability test); type: in vitro ADME
Description: as §2

[5] = Solubility test in administration solvent; type: physicochemical; conditions: 2.0 mg/mL; Solvent A 20%, Solvent B 20%, Solvent C 60% (dimethylacetamide/Cremophor EL/20% HPbCD)
Description: The test substances were accurately weighed and placed in a glass vial. Then, solvent A was added in an amount corresponding to 20% of the desired final solution volume, and the mixture was completely dissolved by treatment with a vortexer and sonication. Next, solvent B in an amount corresponding to 10% or 20% of the final solution volume was added and mixed well. […] Finally, the mixture was subjected to sonication for 30 seconds. The mixed solution was prepared and used immediately before administration in the experiment. • Solvent A: Dimethylacetamide produced by SigmaAldrich • Solvent B: Cremophor EL produced by SigmaAldrich • Solvent C: 20% HPbCD ((2-Hydroxypropyl)-β-cyclodextrin produced by SigmaAldrich) in deionized water

[6] = Pharmacokinetic (PK) test; type: in vivo, male ICR mice; conditions: for Vd: iv; for AUC(0-t): read-out: AUClast, Mean
Description: Pharmacokinetic (PK) parameters of the Example compounds according to the present invention were determined using male ICR mice as follows (n=3).
Pharmacokinetic (PK) parameters were measured by non-compartmental analysis of plasma concentration-time curves using Kinetica™ 4.4.1 (Thermo Fisher Scientific, USA). Results thereof are shown in Table below and FIGS. 5A to 5C. In Table below, “F” parameter was calculated using AUClast, “N/A” indicates the phrase not applicable, and “NC” indicates the phrase not calculated.

[7] = male, ICR, mouse, plasma, Oral administration, 20 mg/kg, mice, n=3

IC50 (K562): 2.85 nM
IC50 (MCF7): 15.4 nM
IC50 (K562/ADR): 2190 nM
IC50 (MCF7/ADR): 2610 nM
Structure (SMILES): COc1cccc2c1C(=O)c1c(O)c3c(c(O)c1C2=O)C[C@@](O)(C(=O)CO)C[C@@H]3O[C@H]1C[C@H](N)[C@H](O)[C@H](C)O1 [Doxorubicin, doxorubicin]
Resistance Factor (K562/ADR): 767.91
Resistance Factor (MCF7/ADR): 169.57

IC50 (K562): 17.1 nM
IC50 (MCF7): 5.28 nM
IC50 (K562/ADR): 268 nM
IC50 (MCF7/ADR): 95.9 nM
Structure (SMILES): CC[C@]1(O)C[C@@H]2CN(CCc3c([nH]c4ccccc34)[C@@](C(=O)OC)(c3cc4c(cc3OC)N(C)[C@H]3[C@@](O)(C(=O)OC)[C@H](OC(C)=O)[C@]5(CC)C=CCN6CC[C@]43[C@@H]65)C2)C1 [Vinblastine, vinblastine]
Resistance Factor (K562/ADR): 15.63
Resistance Factor (MCF7/ADR): 18.17

IC50 (HeLa cells): 123 nM
Residue % (180 minutes elapsed), Mean (Stability test in plasma [1]; Human plasma): 4.20%
half-life at 5 mM (Stability test in plasma [1]; Human plasma): 160 min
Residue % (180 minutes elapsed), Mean (Stability test in plasma [1]; Mouse plasma): 57.25%
half-life at 5 mM (Stability test in plasma [1]; Mouse plasma): > 180 min
half-life at 5 mM (Stability test in plasma [2]): 134 min
Residue % (180 minutes elapsed), Mean (Stability test in plasma [2]; 5 mM): 41.74%
Residue (%) after culturing for 30 min ([3]; Human, +NADPH): 7.94 ± 0.74%
Residue (%) after culturing for 30 min ([3]; Human, −NADPH): 88.63 ± 1.61%
Residue (%) after culturing for 30 min ([3]; Mouse, +NADPH): 4.82 ± 0.52%
Residue (%) after culturing for 30 min ([3]; Mouse, −NADPH): 86.31 ± 1.72%
Residue (%) after culturing for 30 min ([3]; Rat, +NADPH): 3.47 ± 0.25%
Residue (%) after culturing for 30 min ([3]; Rat, −NADPH): 94.95 ± 1.93%
Residue (%) after culturing for 30 min [4]: 91.02 ± 2.89%
Solubility evaluation result [5]: Soluble
F, Mean ([6]; Oral 20 mg/kg vs intravenous 5 mg/kg, calculated using AUClast): 0.3%
Vd ([6]; male, ICR, mouse, plasma, 5 mg/kg, Intravenous administration, 5 mg/kg, mice, n=3, read-out: Vss, Mean): 0.71 L/kg
Vd ([6]; male, ICR, mouse, plasma, 5 mg/kg, Intravenous administration, 5 mg/kg, mice, n=3, read-out: Vz, Mean): 1.37 L/kg
AUC(0-inf) ([6]; male, ICR, mouse, plasma, Intravenous administration, 5 mg/kg, mice, n=3, read-out: AUCinf, Mean): 1730 ng·h/mL
AUC(0-t) ([6]; male, ICR, mouse, plasma, Intravenous administration, 5 mg/kg, mice, n=3): 1720 ng·h/mL
clearance ([6]; male, ICR, mouse, plasma, Intravenous administration, 5 mg/kg, mice, n=3, read-out: CL, Mean (converted)): 48.2 mL/min/kg
MRT inf ([6]; male, ICR, mouse, plasma, Intravenous administration, 5 mg/kg, mice, n=3, read-out: MRTinf, Mean): 14.4 min
half-life ([6]; male, ICR, mouse, plasma, Intravenous administration, 5 mg/kg, mice, n=3, read-out: t1/2, Mean (converted)): 19.8 min
Cmax [6, 7]: 34.4 ng/mL
Tmax [6, 7]: 15 min
AUC(0-t) [6, 7]: 18 ng·h/mL
Structure (SMILES): CCOCCn1c(Cl)c(/C=N/NC(=O)c2cc3cc(OC)ccc3o2)c2cc(OC)ccc21 [Example 15, (E)-N′-[(2-chloro-1-(2-ethoxyethyl)-5-methoxy-1H-indol-3-yl]methylene}-5-methoxybenzofuran-2-carbohydrazide]
tumor growth inhibition (HeLa CCL2 tumor; 0-28 days, Day 28, tumor size): 40.13%
reduction in tumor weight compared with solvent control (HeLa CCL2 tumor; excised tumor): 26.2%
